Results taken from patent publication US8846675B2, “N-linked heterocyclic receptor agonists for the treatment of diabetes and metabolic disorders” (Cymabay Therapeutics, Inc., priority 2007, dated 2014).

These compounds were tested against T1, IC-GPCR2 (Homo sapiens, UniProt Q8TDV5) (assay: Stimulation of cAMP in CHO cell line stably expressing IC-GPCR2 (HTRF cAMP dynamic kit)). Details: 3 μM compound; relative to maximal activity of 5-Ethyl-2-{4-[4-(4-tetrazol-1-yl-phenoxymethyl)-thiazol-2-yl]-piperidin-1-yl}-pyrimidine (=100%); IC-GPCR2 stably expressing CHO cells, 30 minutes.
T1 construct: expressed in transfected cells
T1 sequence (Q8TDV5 1-335 S309L): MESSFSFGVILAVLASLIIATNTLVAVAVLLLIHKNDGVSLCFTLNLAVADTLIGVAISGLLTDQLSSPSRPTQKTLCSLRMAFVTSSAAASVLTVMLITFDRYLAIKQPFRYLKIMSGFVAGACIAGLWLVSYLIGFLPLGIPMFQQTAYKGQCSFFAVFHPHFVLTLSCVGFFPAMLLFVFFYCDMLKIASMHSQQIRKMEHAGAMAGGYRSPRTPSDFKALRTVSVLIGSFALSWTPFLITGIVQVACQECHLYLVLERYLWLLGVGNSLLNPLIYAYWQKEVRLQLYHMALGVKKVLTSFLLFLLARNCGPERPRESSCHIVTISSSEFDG
Format: cell-based
Summary of the method: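 CHO cells stably expressing IC-GPCR2, with parental CHO as counter-screen, were exposed to compound (0.00003–10 μM) for 30 min in Ham's F12. Intracellular cAMP read by HTRF competitive immunoassay (665/620 nm ratio). Activity at 3 μM expressed as % of maximal signal from a reference agonist.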

Row | Compound | % activity at 3 μM [%]
1 | FC(F)(F)c1ccc(N2CCC(n3ncc(COc4ccc(-n5cnnn5)nc4)n3)CC2)nc1 [Example 82, 2-(4-(4-((6-(1H-tetrazol-1-yl)pyridin-3-yloxy)methyl)-2H-1,2,3-triazol-2-yl)piperidin-1-yl)-5-(trifluoromethyl)pyridine] | 64.90
2 | CC1CN(C(=O)OC(C)(C)C)CCC1n1ncc(COc2ccc(-n3cnnn3)nc2)n1 (stereo not drawn) [Example 83, tert-Butyl 4-(4-((6-(1H-tetrazol-1-yl)pyridin-3-yloxy)methyl)-2H-1,2,3-triazol-2-yl)-3-methylpiperidine-1-carboxylate] | 63.14
3 | CC1CN(c2ncc(C(F)(F)F)cn2)CCC1n1ncc(COc2ccc(-n3cnnn3)nc2)n1 (stereo not drawn) [Example 84, 2-(4-(4-((6-(1H-Tetrazol-1-yl)pyridin-3-yloxy)methyl)-2H-1,2,3-triazol-2-yl)-3-methylpiperidin-1-yl)-5-(trifluoromethyl)pyrimidine] | 78.05
4 | CCc1cnc(N2CCC(n3ncc(COc4ccc(-n5cnnn5)nc4)n3)C(C)C2)nc1 (stereo not drawn) [Example 85, 2-(4-(4-((6-(1H-Tetrazol-1-yl)pyridin-3-yloxy)methyl)-2H-1,2,3-triazol-2-yl)-3-methylpiperidin-1-yl)-5-ethylpyrimidine] | 76.12
5 | Cc1cnc(N2CCC(n3ncc(COc4ccc(-n5cnnn5)nc4)n3)C(C)C2)nc1 (stereo not drawn) [Example 86, 2-(4-(4-((6-(1H-Tetrazol-1-yl)pyridin-3-yloxy)methyl)-2H-1,2,3-triazol-2-yl)-3-methylpiperidin-1-yl)-5-methylpyrimidine] | 71.39
6 | CC1CN(c2ncc(Cl)cn2)CCC1n1ncc(COc2ccc(-n3cnnn3)nc2)n1 (stereo not drawn) [Example 87, 2-(4-(4-((6-(1H-Tetrazol-1-yl)pyridin-3-yloxy)methyl)-2H-1,2,3-triazol-2-yl)-3-methylpiperidin-1-yl)-5-chloropyrimidine] | 75.63
7 | Clc1cnc(N2CCC(n3ncc(COc4ccc(-n5cnnn5)cc4)n3)CC2)nc1 [Example 88, 2-(4-(4-((4-(1H-Tetrazol-1-yl)phenoxy)methyl)-2H-1,2,3-triazol-2-yl)piperidin-1-yl)-5-chloropyrimidine] | 60.96
8 | Cc1cc(-n2cnnn2)ccc1OCc1cnn(C2CCN(c3ncc(Cl)cn3)CC2)n1 [Example 89, 5-chloro-2-(4-(4-((2-Methyl-4-(1H-tetrazol-1-yl)phenoxy)methyl)-2H-1,2,3-triazol-2-yl)piperidin-1-yl)pyrimidine] | 48.60
9 | Cc1sc(OCc2cnn(C3CCN(c4ncc(Cl)cn4)CC3)n2)nc1-c1cccnc1 [Example 90, 2-((2-(1-(5-Chloropyrimidin-2-yl)piperidin-4-yl)-2H-1,2,3-triazol-4-yl)methoxy)-5-methyl-4-(pyridin-3-yl)thiazole] | 13.60
10 | Cc1sc(OCc2cnn(C3CCN(c4ncc(Cl)cn4)CC3)n2)nc1-c1ccncc1 [Example 91, 2-((2-(1-(5-Chloropyrimidin-2-yl)piperidin-4-yl)-2H-1,2,3-triazol-4-yl)methoxy)-5-methyl-4-(pyridin-4-yl)thiazole] | 5.82
11 | Clc1cnc(N2CCC(n3ncc(COc4ccc(-n5ccnn5)cc4)n3)CC2)nc1 [Example 92, 2-(4-(4-((4-(1H-1,2,3-Triazol-1-yl)phenoxy)methyl)-2H-1,2,3-triazol-2-yl)piperidin-1-yl)-5-chloropyrimidine] | 58.28
12 | Clc1cnc(N2CCC(n3ncc(COc4ccc(-n5cncn5)cc4)n3)CC2)nc1 [Example 93, 2-(4-(4-((4-(1H-1,2,4-Triazol-1-yl)phenoxy)methyl)-2H-1,2,3-triazol-2-yl)piperidin-1-yl)-5-chloropyrimidine] | 50.84
13 | Clc1cnc(N2CCC(n3ncc(COc4ccc(-n5ccnc5)cc4)n3)CC2)nc1 [Example 94, 2-(4-(4-((4-(1H-Imidazol-1-yl)phenoxy)methyl)-2H-1,2,3-triazol-2-yl)piperidin-1-yl)-5-chloropyrimidine] | 49.73
14 | CS(=O)(=O)c1ccc(OCc2cnn(C3CCN(c4ncc(Cl)cn4)CC3)n2)cc1 [Example 95, 5-Chloro-2-(4-(4-((4-(Methylsulfonyl)phenoxy)methyl)-2H-1,2,3-triazol-2-yl)piperidin-1-yl)pyrimidine] | 51.03
15 | Clc1cnc(N2CCC(n3ncc(COc4ccccc4-c4nnco4)n3)CC2)nc1 [Example 96, 5-Chloro-2-{4-[4-(2-[1,3,4]oxadiazol-2-yl-phenoxymethyl)-[1,2,3]triazol-2-yl]-piperidin-1-yl}-pyrimidine] | 28.90
16 | Clc1cnc(N2CCC(n3ncc(COc4ccc(Cl)nc4)n3)CC2)nc1 [Example 98, 5-Chloro-2-{4-[4-(6-chloro-pyridin-3-yloxymethyl)-[1,2,3]triazol-2-yl]-piperidin-1-yl}-pyrimidine] | 17.16
17 | O=C1CCCN1c1ccc(OCc2cnn(C3CCN(c4ncc(C(F)(F)F)cn4)CC3)n2)cc1 [Example 99, 1-(4-{2-[1-(5-Trifluoromethyl-pyrimidin-2-yl)-piperidin-4-yl]-2H-[1,2,3]triazol-4-ylmethoxy}-phenyl)-pyrrolidin-2-one] | 56.81
18 | FC(F)(F)c1cnc(N2CCC(n3ncc(COCc4ccccc4)n3)CC2)nc1 [Example 100, 2-[4-(4-benzyloxymethyl-[1,2,3]triazol-2-yl)-piperidin-1-yl]-5-trifluoromethyl-pyrimidine] | 10.69
19 | CC(C)COC(=O)N1CCC(n2ncc(COc3ccc(-n4cnnn4)cc3F)n2)CC1 [Example 101, Isobutyl 4-(4-((2-fluoro-4-(1H-tetrazol-1-yl)phenoxy)methyl)-2H-1,2,3-triazol-2-yl)piperidine-1-carboxylate] | 50.67
20 | O=C(OCc1ccccc1)N1CCC(n2ncc(COc3ccc(-n4cnnn4)cc3F)n2)CC1 [Example 102, Benzyl 4-(4-((2-fluoro-4-(1H-tetrazol-1-yl)phenoxy)methyl)-2H-1,2,3-triazol-2-yl)piperidine-1-carboxylate] | 38.98
21 | CC(C)COC(=O)N1CCC(n2ncc(COc3ccc(S(C)(=O)=O)cc3F)n2)CC1 [Example 103, Isobutyl 4-(4-((2-fluoro-4-(methylsulfonyl)phenoxy)methyl)-2H-1,2,3-triazol-2-yl)piperidine-1-carboxylate] | 51.30
22 | CS(=O)(=O)c1ccc(OCc2cnn(C3CCN(C(=O)OCc4ccccc4)CC3)n2)c(F)c1 [Example 104, Benzyl 4-(4-((2-fluoro-4-(methylsulfonyl)phenoxy)methyl)-2H-1,2,3-triazol-2-yl)piperidine-1-carboxylate] | 28.40
23 | CCOC(=O)c1cnc(N2CCC(n3ncc(COc4ccc(S(C)(=O)=O)cc4F)n3)CC2)nc1 [Example 105, Ethyl 2-(4-(4-((2-fluoro-4-(methylsulfonyl)phenoxy)methyl)-2H-1,2,3-triazol-2-yl)piperidin-1-yl)pyrimidine-5-carboxylate] | 10.65
24 | CCOC(=O)c1cnc(N2CCC(n3ncc(COc4ccc(-n5cnnn5)cc4F)n3)CC2)nc1 [Example 106, Ethyl 2-(4-(4-((2-fluoro-4-(1H-tetrazol-1-yl)phenoxy)methyl)-2H-1,2,3-triazol-2-yl)piperidin-1-yl)pyrimidine-5-carboxylate] | 11.46
25 | CS(=O)(=O)c1ccc(OCc2cnn(C3CCN(c4ncc(F)cn4)CC3)n2)c(F)c1 [Example 107, 5-Fluoro-2-(4-(4-((2-fluoro-4-(methylsulfonyl)phenoxy)methyl)-2H-1,2,3-triazol-2-yl)piperidin-1-yl)pyrimidine] | 36.83
26 | O=C(c1ccccn1)N1CCC(n2ncc(COc3ccc(-n4cnnn4)cc3F)n2)CC1 [Example 108, (4-(4-((2-Fluoro-4-(1H-tetrazol-1-yl)phenoxy)methyl)-2H-1,2,3-triazol-2-yl)piperidin-1-yl)(pyridin-2-yl)methanone] | 41.78
27 | O=C(c1cccc(O)n1)N1CCC(n2ncc(COc3ccc(-n4cnnn4)cc3F)n2)CC1 [Example 109, (4-(4-((2-Fluoro-4-(1H-tetrazol-1-yl)phenoxy)methyl)-2H-1,2,3-triazol-2-yl)piperidin-1-yl)(6-hydroxypyridin-2-yl)methanone] | 7.45
28 | O=C(c1ncccc1O)N1CCC(n2ncc(COc3ccc(-n4cnnn4)cc3F)n2)CC1 [Example 110, (4-(4-((2-Fluoro-4-(1H-tetrazol-1-yl)phenoxy)methyl)-2H-1,2,3-triazol-2-yl)piperidin-1-yl)(3-hydroxypyridin-2-yl)methanone] | 1.30
29 | Cc1cccnc1C(=O)N1CCC(n2ncc(COc3ccc(-n4cnnn4)cc3F)n2)CC1 [Example 111, (4-(4-((2-Fluoro-4-(1H-tetrazol-1-yl)phenoxy)methyl)-2H-1,2,3-triazol-2-yl)piperidin-1-yl)(3-methylpyridin-2-yl)methanone] | 24.12
30 | O=C(c1cccnc1)N1CCC(n2ncc(COc3ccc(-n4cnnn4)cc3F)n2)CC1 [Example 112, (4-(4-((2-Fluoro-4-(1H-tetrazol-1-yl)phenoxy)methyl)-2H-1,2,3-triazol-2-yl)piperidin-1-yl)(pyridin-3-yl)methanone] | 42.30
